{
  "source": "patent US20100022656A1",
  "about": "“OPTICALLY ACTIVE PHENYLETHANOL AMINES AND PREPARING METHOD THEREOF” (SHENYANG PHARMACEUTICAL UNIVERSITY, priority 2006, published 2010)",
  "data": [
    {"target": "T1, β2-receptor (Cavia porcellus, UniProt Q8K4Z4)", "T1 construct": "Trachea was removed and cut from thyroid cartilage to trachea crotch; from tissue; host or cells: guinea pig (Hartley) isolated trachea strips", "T1 sequence (Q8K4Z4 whole entry)": "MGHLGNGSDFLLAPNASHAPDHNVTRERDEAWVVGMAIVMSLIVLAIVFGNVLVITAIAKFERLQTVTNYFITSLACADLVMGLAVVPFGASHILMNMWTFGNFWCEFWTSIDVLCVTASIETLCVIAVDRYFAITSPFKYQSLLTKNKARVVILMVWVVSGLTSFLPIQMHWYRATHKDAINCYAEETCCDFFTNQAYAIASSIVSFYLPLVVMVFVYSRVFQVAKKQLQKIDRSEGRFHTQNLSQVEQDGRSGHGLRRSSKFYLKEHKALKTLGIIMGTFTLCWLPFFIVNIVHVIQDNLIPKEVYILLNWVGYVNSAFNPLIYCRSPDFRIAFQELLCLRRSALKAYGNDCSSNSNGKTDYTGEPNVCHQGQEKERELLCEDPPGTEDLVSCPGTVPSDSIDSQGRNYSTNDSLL", "assay": "Antagonistic effect on isolated trachea strip constriction induced by histamine (study of effect on β2-receptor)", "assay_type": "cell-based", "conditions": "isolated guinea pig (Hartley) trachea strips contracted with histamine to 50% of maximum; tested compounds formulated as 10^−6 M solution; 37° C.", "description": "Study of the Effect of Compounds of the Invention on β2-Receptor\nSample: All tested compounds were formulated into solution of 10^−6 M.\nThe antagonistic effects of the compounds of the present invention on the trachea constriction induced by histamine.\nGuinea pigs were sacrificed and cut through the skin and subcutaneous tissue on ventral side of neck. Trachea was removed and cut from thyroid cartilage to trachea crotch, then placed into an ice cooled oxygenated Kebs-Hensleits solution. The connective tissues around the trachea were cut off. The trachea was held by a nipper on one end and cut into trachea strips (2 cm×3 mm) in helix. The samples were then put into a bath containing 20 ml of Kebs-Hensleits solution. The lower end of the trachea strips was fastened to a vent hook and the upper end was connected to a strain gauge transducer, thus the tension change was measured by the recorder. The bath was controlled at 37° C. and oxygen gas was continuously supplied. The preload of the samples was 2 g. The samples were equilibrated in the nutrient solution for 1 hour and the solution was refreshed every 20 min.\nWhen the tension of the samples reached a stable value, various concentrations (1×10^−10˜3×10^−4 mol·L^−1) of histamine were added to the bath. A dose-effect curve was established to determine the concentration of histamine when 50% of the maximum contraction was reached. After refreshing the solution and balancing the samples for 60 min, an amount of histamine was added to the bath. When the tension of trachea strips reached 50% of the maximum contraction, the tested compounds were added to bath, and the antagonistic effect (represented as relaxing rate) of the compounds on the isolated trachea constriction induced by histamine was calculated as below:\nRelaxing rate (%)=[(Contraction intensity after histamine addition−Contraction intensity after tested compounds addition)/[…]]×100%", "units": {"Relaxing rate (%)": "%"}, "values": [
      {"smiles": "CC(C)(C)NC(CO)c1cc(Cl)c(N)c(C#N)c1.Cl", "note": "(stereo not drawn) [drawing 6]", "Relaxing rate (%)": 100.0},
      {"smiles": "CC(C)(C)NC(CO)c1cc(Cl)c(N)c(C#N)c1.Cl", "note": "(stereo not drawn) [drawing 7]", "Relaxing rate (%)": 78.1},
      {"smiles": "CC(C)(C)NC(CO)c1cc(Cl)c(N)c(C#N)c1.Cl", "note": "(stereo not drawn) [drawing 8]", "Relaxing rate (%)": 112.1},
      {"smiles": "CC(C)(C)NC(CO)c1ccc(N)c(C(F)(F)F)c1.Cl", "note": "(stereo not drawn) [drawing 12]", "Relaxing rate (%)": 70.2},
      {"smiles": "CC(C)(C)NC(CO)c1ccc(N)c(C(F)(F)F)c1.Cl", "note": "(stereo not drawn) [drawing 13]", "Relaxing rate (%)": 55.3},
      {"smiles": "CC(C)(C)NC(CO)c1ccc(N)c(C(F)(F)F)c1.Cl", "note": "(stereo not drawn) [drawing 14]", "Relaxing rate (%)": 88.3}
    ]}
  ]
}
